# Measurements reported in paper PMC11239830, “Synthetic macrolides overcoming MLSBK-resistant pathogens” (Cell Discovery, 2024).
# Read-outs that look alike come from different tables or passages of the source.
# Assays:
# [1] = system: S. pneumoniae; assay: MIC, broth microdilution; assay type: cell-based, Streptococcus pneumoniae
# Summary of the method: (§1)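 Incubation ran for 16–20 h at 37 °C after setup per Clinical and Laboratory Standards Institute microdilution procedure. Growth was then observed to assign the MIC. Assays were replicated at least three times.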
# [2] = system: S. pyogenes; assay: MIC, broth microdilution; assay type: cell-based, Streptococcus pyogenes
# Summary of the method: as §1
# [3] = system: S. aureus; assay: MIC, broth microdilution; assay type: cell-based, Staphylococcus aureus
# Summary of the method: as §1
# [4] = system: M. catarrhalis; assay: MIC, broth microdilution; assay type: cell-based, Moraxella catarrhalis; conditions: Moraxella catarrhalis; M. catarrhalis 13L332, Ery-S; read-out: MIC
# Protocol: MICs were determined by the microdilution method according to the Clinical and Laboratory Standards Institute guidelines. Briefly, the stock solution of compounds and the reference antibiotics were diluted 2-fold in sterile 96-well plates with cation-adjusted Mueller-Hinton broth, and mixed with CAMHB-containing bacteria to give a final inoculum of 5 × 10^5 CFU/mL for broth microdilution experiments. […] Finally, the 96-well plates were incubated at 37 °C for 16–20 h to observe and record the results. The lowest concentration at which no bacterial growth could be observed visually was identified as the MICs of the compounds. The assay for MICs was replicated at least three times.
# [5] = system: 15B196 S. aureus ribosomes (A2058-methylated); assay: PURE in vitro translation inhibition assay; assay type: biochemical, Staphylococcus aureus; conditions: mean ± SD
# Protocol: (§2) To validate the in vitro activity of our compounds, we employed an in vitro reconstituted E. coli Protein synthesis Using a Recombinant Elements (PURE) translation system, substituting E. coli ribosomes with the purified S. aureus ribosomes.
# (§3) 5 μL of PURE reaction mix that translates a gene encoding the Nanoluc luciferase was set up in the presence or absence of tested compounds. Protein synthesis was initiated by incubating reactions at 37 °C for 60 min and stopped by placing on ice for 5 min. Luciferase activity was quantified using the Nano-Glo luciferase assay system and read on a GloMax 20/20 luminometer (Promega, USA). For each compound, the in vitro translation inhibition assay was performed in three biological triplicates over a range of concentrations from 0.001 μM to 1000 μM. A compound-free control was used to normalize luminescence measurements. The calculated luminescence percentages were plotted against compound concentrations on a semilog scale using GraphPad Prism.
# [6] = system: WT S. aureus ribosomes; assay: PURE in vitro translation inhibition assay; assay type: biochemical, Staphylococcus aureus; conditions: mean ± SD
# Protocol: as §2, §3
# [7] = CCK-8 assay for cytotoxicity; assay type: cell-based, human; conditions: human, HEK293T cells, HEK293T cell viability
# Protocol: HepG2 cells (6 × 10^3) and HEK293T cells (4 × 10^3) were seeded into 96-well plates in 90 μL of DMEM medium containing 10% FBS per well. […] After overnight incubation, the test compound stock solution was diluted with DMEM medium containing 10% FBS to every target concentration, and 10 μL of each was added to each well. Three parallel experiments were set up for each compound. After incubation for 48 h, 10 μL of cell counting kit-8 (CCK-8) reagent was added to each well in sequence according to the manufacturer’s instructions. […] This experiment was independently repeated three times. The data were processed by GraphPad Prism.
# [8] = Staphylococcus aureus, All S. aureus (24)
# [9] = Staphylococcus aureus, i-MLSB S. aureus (10)
compound,measurement,setting,value
"CC[C@H]1OC(=O)[C@H](C)C(=O)[C@H](C)[C@@H](O[C@@H]2O[C@H](C)C[C@H](N(C)C)[C@H]2O)[C@](C)(OC)C[C@@H](C)C(=O)[C@H](C)[C@H]2N(CCCCn3cnc(-c4cccnc4)c3)C(=O)O[C@]12C [telithromycin, reference compound]",MIC,"[1]; S. pneumoniae 21C315, Clinical, c-ermB",0.12 µg/mL
same,MIC,"[1]; S. pneumoniae 21D016, Clinical, c-ermB, mef",0.25 µg/mL
same,MIC,"[1]; S. pneumoniae 21D020, Clinical, c-ermB, mef",0.25 µg/mL
same,MIC,"[1]; S. pneumoniae 21M277, Clinical, c-ermB",0.12 µg/mL
same,MIC,"[1]; S. pneumoniae 21Q352, Clinical, i-MLSB",0.06 µg/mL
same,MIC,"[1]; S. pneumoniae 21Q353, Clinical, i-MLSB",0.03 µg/mL
same,MIC,"[1]; S. pneumoniae 21W257, Clinical, c-ermB, mef",0.12 µg/mL
same,MIC,"[1]; S. pneumoniae 21X435, Clinical",0.016 µg/mL
same,MIC,[1]; S. pneumoniae ATCC49619,0.008 µg/mL
same,MIC,"[1]; S. pneumoniae PU09, mef",1 µg/mL
same,MIC,"[1]; Streptococcus pneumoniae, S. pneumoniae 05O173, c-ermB, mef, read-out: MIC",4 µg/mL
same,MIC,"[1]; Streptococcus pneumoniae, S. pneumoniae PU09, mef, read-out: MIC",0.5 µg/mL
same,MIC,"[2]; S. pyogenes 01-968, Clinical, i-ermB",0.016 µg/mL
same,MIC,"[2]; S. pyogenes 12-207, Clinical, mef",0.5 µg/mL
same,MIC,"[2]; S. pyogenes 21C303, Clinical, c-ermB",16 µg/mL
same,MIC,"[2]; S. pyogenes 21D184, Clinical, c-ermB",8 µg/mL
same,MIC,"[2]; S. pyogenes 21D199, Clinical, c-ermB",8 µg/mL
same,MIC,"[2]; S. pyogenes 21D200, Clinical, c-ermB",16 µg/mL
same,MIC,"[2]; S. pyogenes 21K003, Clinical, mef",1 µg/mL
same,MIC,"[2]; S. pyogenes 21M063, Clinical, c-ermB",16 µg/mL
same,MIC,"[2]; S. pyogenes 21W186, Clinical, c-ermTR",8 µg/mL
same,MIC,"[3]; S. aureus 15B196, Clinical, MRSA, c-ermB",128 µg/mL
same,MIC,"[3]; S. aureus 15B196, c-ermB",32 µg/mL
same,MIC,"[3]; S. aureus 21B200, Clinical, MRSA, c-ermB",> 256 µg/mL
same,MIC,"[3]; S. aureus 21B207, Clinical, MRSA, c-ermB",> 256 µg/mL
same,MIC,"[3]; S. aureus 21B212, Clinical, MSSA, i-ermC",0.25 µg/mL
same,MIC,"[3]; S. aureus 21C173, Clinical, MSSA, i-ermC",0.25 µg/mL
same,MIC,"[3]; S. aureus 21C174, Clinical, MSSA, c-ermB",> 256 µg/mL
same,MIC,"[3]; S. aureus 21C187, Clinical, MRSA, i-ermA",0.12 µg/mL
same,MIC,"[3]; S. aureus 21D112, Clinical, MSSA, c-ermB",> 256 µg/mL
same,MIC,"[3]; S. aureus 21D115, Clinical, MSSA, i-ermC",0.12 µg/mL
same,MIC,"[3]; S. aureus 21F198, Clinical, MRSA, c-ermB",> 256 µg/mL
same,MIC,"[3]; S. aureus 21F206, Clinical, MSSA, c-ermB",> 256 µg/mL
same,MIC,"[3]; S. aureus 21F207, Clinical, MRSA, i-ermC",0.25 µg/mL
same,MIC,"[3]; S. aureus 21K194, Clinical, MSSA, i-ermC",0.25 µg/mL
same,MIC,"[3]; S. aureus 21N354, Clinical, MRSA, c-ermB",128 µg/mL
same,MIC,"[3]; S. aureus 21P191, Clinical, MSSA, c-ermC",> 256 µg/mL
same,MIC,"[3]; S. aureus 21P404, Clinical, MSSA, i-ermC",0.5 µg/mL
same,MIC,"[3]; S. aureus 21P407, Clinical, MRSA, c-ermB",> 256 µg/mL
same,MIC,"[3]; S. aureus 21Q253, Clinical, MRSA, c-ermB",16 µg/mL
same,MIC,"[3]; S. aureus 21R216, Clinical, MSSA, c-ermC",> 256 µg/mL
same,MIC,"[3]; S. aureus 21T141, Clinical, MRSA, c-ermB",> 256 µg/mL
same,MIC,"[3]; S. aureus 21X388, Clinical, i-ermA (MRSA in Table S9, MSSA in Fig. 2a)",0.25 µg/mL
same,MIC,"[3]; S. aureus 21Y223, Clinical, MRSA, i-ermC",0.25 µg/mL
same,MIC,[3]; S. aureus ATCC29213,0.25 µg/mL
same,MIC,"[3]; S. aureus PU32, Clinical, MRSA, i-ermA",0.12 µg/mL
same,MIC50,[3]; [8],16 µg/mL
same,MIC90,[3]; [8],> 256 µg/mL
same,MIC50,"[3]; Staphylococcus aureus, MRSA, MRSA (13)",128 µg/mL
same,MIC50,"[3]; Staphylococcus aureus, MSSA, MSSA (10)",0.5 µg/mL
same,MIC,"[3]; Staphylococcus aureus, S. aureus 15B196, c-ermB, read-out: MIC",64 µg/mL
same,MIC50,"[3]; Staphylococcus aureus, c-MLSB (constitutive) S. aureus (13)",> 256 µg/mL
same,MIC50,[3]; [9],0.25 µg/mL
same,MIC90,[3]; [9],0.25 µg/mL
same,MIC90,"[3]; Staphylococcus aureus, MRSA (13)",> 256 µg/mL
same,MIC90,"[3]; Staphylococcus aureus, MSSA (10)",> 256 µg/mL
same,MIC,[4],0.25 µg/mL
same,IC50,[5],> 10 µM
same,IC50,[6],0.38 ± 0.13 µM
same,CC50 at 48 h,[7],> 100 µM
